# Test: Hydrogen Peroxide Oxidation (LC-MS analysis of prochelator conversion)
# Assay type: physicochemical
# Settings: 2 mM B-HAPI in water/DMSO, addition of 50 μl concentrated (30%) H2O2, room temperature, 1 h, data not shown
# Description: Hydrogen Peroxide Oxidation. A 40 mM stock solution of B-HAPI in DMSO was prepared. The reaction mixture (2 mM B-HAPI) was prepared by mixing […] of the B-HAPI stock solution with 450 μl of water and 450 μl of DMSO. The reaction was initiated by addition of 50 μl of concentrated (30%) H2O2 solution. The reaction mixture was incubated at room temperature for 1 h and analyzed by LC-MS.
structure (smiles),measurement,value
"C/C(=N\NC(=O)c1ccncc1)c1ccccc1OCc1ccc(B2OC(C)(C)C(C)(C)O2)cc1 [B-HAPI, N′-(1-(2-(4-(4,4,5,5-tetramethyl-1,3,2-dioxaborolan-2-yl)benzyloxy)phenyl)ethylidene)isonitotinohdrazide]",Hydrogen peroxide oxidation: products formed (LC-MS),Formation of the chelator (HAPI) and the intermediate of the self-immolative deprotection reaction was observed
